The values below come from ChEMBL document CHEMBL4808180, “Identification of 2,2-Dimethylbutanoic Acid (HST5040), a Clinical Development Candidate for the Treatment of Propionic Acidemia and Methylmalonic Acidemia” (J Med Chem, 2021).

The nature of assay [1]: Reduction of propionyl-CoA in human hepatocytes derived from propionic acidemia patient at 100 uM pretreated for 30 mins followed by 13C-isoleucine addition and measured after 1 hr by MS/MS analysis relative to control. The format is functional, Hepatocyte. Also noted: scale not given: the % may be the effect or the level left. The following applies: time 90 min, 1.5 h.
A short description of assay [2]: Reduction of propionyl-CoA in human hepatocytes derived from propionic acidemia patient pretreated for 30 mins followed by 13C-isoleucine addition and measured after 1 hr by MS/MS analysis. Type of assay: functional, cell-based. Conditions: hepatocyte.

Where only a bound is given, the exact number is not on record here.

As usually defined, the EC50 is the midpoint of the concentration-response curve. Consider `CSCCCC(=O)O`, for which the Activity in assay [1] turned out to be 78%. Moreover, in assay [2], the EC50 amounted to 18.9 µM.

Take `CC(C)(C)CC(=O)O` [T-BUTYLACETIC ACID]: in assay [1], the Activity came to 97%. Also, the EC50 in assay [2] came out at 0.91 µM.

Turning to `COCC(C)(C)C(=O)O`, the Activity in assay [1] was found to be 75%. Besides, the EC50 in assay [2] amounted to 2.69 µM.

For the molecule `CCC(C)(C)C(=O)OC`, in assay [1], the Activity was determined as 91%. For the same molecule, in assay [2], the EC50 was found to be 1.73 µM.

For the molecule `CCCC(C)C(=O)O` (stereo unspecified), the Activity in assay [1] is 77%. Also, the EC50 in assay [2] amounted to 12.6 µM.

As for `CCCC(C)(C)C(=O)O`, the Activity in assay [1] amounted to 96%. Further, the EC50 in assay [2] stood at 0.76 µM.

On to `O=C(O)C1CCC1`, for which the Activity in assay [1] was determined as 49%. The EC50 in assay [2] was determined as 55.4 µM.

For `CC(CCO)C(=O)O` (stereo unspecified), in assay [1], the Activity was determined as 66%. Moreover, in assay [2], the EC50 is above 100 µM.

Consider `CCC(C)(C)C(N)=O`, for which, in assay [1], the Activity worked out at 57%. In addition, in assay [2], the EC50 is above 100 µM.

As to `CCC(CC)C(=O)O`, the Activity in assay [1] is 67%. Besides, the concentration giving a half-maximal response (EC50) in assay [2] was 33.7 µM.

Regarding `CCCC(CCC)C(=O)OC`, in assay [1], the Activity stood at 63%. Besides, in assay [2], the concentration giving a half-maximal response (EC50) is above 100 µM.

`CC1(CC(=O)O)CC1`: the Activity in assay [1] was determined as 65%. In assay [2], the concentration giving a half-maximal response (EC50) turned out to be 15.5 µM.

In the case of `O=C(O)C1CCCC1`, in assay [1], the Activity was determined as 42%. Also, in assay [2], the half-maximal effective concentration (EC50) worked out at 12.3 µM.

As for `CC(C)(C)C(=O)O` [PIVALATE], the Activity in assay [1] is on record as 77%. Besides, the EC50 in assay [2] is 5.53 µM.

Take `CNCCC(=O)O`: in assay [1], the Activity turned out to be 64%. The EC50 in assay [2] turned out to be 6.55 µM.

`O=C(O)CCCC(F)(F)F`: in assay [1], the Activity is given as 65%. In addition, the 50% effective concentration (EC50) in assay [2] worked out at 9.91 µM.

In the case of `O=C(O)C1CC1` [CYCLOPROPANE CARBOXYLIC ACID], in assay [1], the Activity was determined as 66%. Further, in assay [2], the concentration giving a half-maximal response (EC50) was determined as 23.3 µM.

With `CCCC(CC)C(=O)O` (stereo unspecified), the Activity in assay [1] is on record as 98%. The EC50 in assay [2] was 1.23 µM.
